Test results published in the Kinase Knowledgebase extract (Sharma et al. 2016).

Experiments:
[1] = target: PIK3CA (human) (UniProt P42336); assay: Inhibition of PIK3CA Kinase Activity
[2] = target: PIK3CA (human) (UniProt P42336); assay: Inhibition of A2780 Cell Proliferation

PIK3CA (human), sequence (P42336 whole entry, looked up): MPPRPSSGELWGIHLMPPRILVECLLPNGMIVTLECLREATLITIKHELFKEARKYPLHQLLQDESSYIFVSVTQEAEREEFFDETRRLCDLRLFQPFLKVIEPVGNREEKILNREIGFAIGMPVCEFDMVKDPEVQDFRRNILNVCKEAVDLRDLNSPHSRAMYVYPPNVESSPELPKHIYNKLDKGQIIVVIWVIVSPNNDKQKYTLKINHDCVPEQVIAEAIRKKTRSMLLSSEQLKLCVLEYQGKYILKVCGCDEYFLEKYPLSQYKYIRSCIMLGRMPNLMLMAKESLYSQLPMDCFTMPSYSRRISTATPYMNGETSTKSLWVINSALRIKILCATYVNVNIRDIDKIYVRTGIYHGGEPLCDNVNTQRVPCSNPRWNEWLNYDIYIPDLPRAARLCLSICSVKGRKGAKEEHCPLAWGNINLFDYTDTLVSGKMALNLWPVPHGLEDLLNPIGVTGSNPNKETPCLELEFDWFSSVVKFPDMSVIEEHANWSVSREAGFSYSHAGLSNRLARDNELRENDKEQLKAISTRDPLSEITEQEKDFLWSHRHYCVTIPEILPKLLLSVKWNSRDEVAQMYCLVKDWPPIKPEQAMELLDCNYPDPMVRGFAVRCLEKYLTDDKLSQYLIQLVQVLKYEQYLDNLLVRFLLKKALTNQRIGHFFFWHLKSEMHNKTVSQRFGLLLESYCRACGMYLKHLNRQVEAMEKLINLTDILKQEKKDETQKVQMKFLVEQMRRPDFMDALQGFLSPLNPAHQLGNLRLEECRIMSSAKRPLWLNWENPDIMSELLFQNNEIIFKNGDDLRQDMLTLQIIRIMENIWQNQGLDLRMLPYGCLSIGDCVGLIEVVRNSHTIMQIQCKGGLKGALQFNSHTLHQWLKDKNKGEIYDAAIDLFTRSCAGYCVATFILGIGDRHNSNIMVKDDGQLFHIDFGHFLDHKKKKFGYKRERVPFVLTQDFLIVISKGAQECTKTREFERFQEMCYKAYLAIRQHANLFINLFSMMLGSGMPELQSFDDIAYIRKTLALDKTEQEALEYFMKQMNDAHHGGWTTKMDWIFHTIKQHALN

SMILES | IC50 [1] [nM] | EC50 [2] [µM]
CCN(CC)CCOc1cc(-c2ccc3nc(NC(C)=O)cn3c2)cnc1N | < 10000 | < 25
CC(=O)Nc1cn2nc(-c3cnc(N)c(N4CCOCC4)n3)ccc2n1 | < 1000 | < 25
CC(=O)Nc1cn2cc(-c3cnc(N)c(-c4ccccc4N4CCOCC4)c3)ccc2n1 | < 1000 | < 1
CC(=O)Nc1cn2cc(-c3cnc(N)c(C=NN(C)C)c3)ccc2n1 | < 1000 | < 10
CC(=O)Nc1nc2ccc(-c3cnc(N)cc3C)cc2s1 | < 1000 | < 25
CCN(CC)Cc1cc(-c2ccc3nc(NC(C)=O)cn3c2)cnc1N | < 1000 | < 25
CC(=O)Nc1cn2cc(-c3ccc(N)nc3F)ccc2n1 | < 1000 | < 10
CC(=O)Nc1cn2cc(-c3cnc(N)c(C(=O)N4CCN(C(=O)OC(C)(C)C)CC4)c3)ccc2n1 | < 1000 | < 25
CC(=O)Nc1cn2cc(-c3cnc(N)c(-c4ccc(F)cc4)c3)ccc2n1 | < 1000 | < 25
Nc1ncc(-c2ccc3nc(NC(=O)CN4CCCCC4)cn3c2)nc1OCC(F)(F)F | < 1000 | < 1
CC(=O)Nc1cn2cc(-c3cnc(N)c(-c4cccc(OC(F)(F)F)c4)c3)ccc2n1 | < 1000 | < 1
CON=Cc1cc(-c2ccc3nc(NC(C)=O)cn3c2)cnc1N | < 1000 | < 25
CNC(=O)c1ccc(-c2c(NC(C)=O)nc3ccc(-c4cnc(N)c(C(F)(F)F)c4)cn23)cc1 | < 1000 | < 25
CC(=O)Nc1nc2ccc(-c3cnc(N)c(C(F)(F)F)c3)cn2c1C#Cc1ccccc1 | < 1000 | < 10
CC(=O)Nc1cn2cc(-c3cnc(N)c(OCC4CCN(C)CC4)n3)ccc2n1 | < 1000 | < 10
CC(C)(C)OC(=O)N1CCC1C(=O)Nc1cn2cc(-c3cnc(N)c(OCC(F)(F)F)n3)ccc2n1 (centres undefined) | < 1000 | < 25
CC(=O)Nc1cn2cc(-c3cnc(N)c(-c4ccccc4)n3)ccc2n1 | < 1000 | < 10
CC(=O)Nc1nc2ccc(-c3cnc(N)c(CN(C)C)c3)cc2s1 | < 1000 | < 10
CC(=O)Nc1cn2cc(-c3cnc(N)c(Br)n3)ccc2n1 | < 1000 | < 25

SMILES | IC50 [1] [nM] | EC50 [2] [µM]
Nc1ccc(-c2ccc3nc(NC(=O)OCCN4CCOCC4)sc3c2)cn1 | < 1000 | < 25
COCCOc1nc(-c2ccc3nc(NC(=O)C4CCN4C(C)=O)cn3c2)cnc1N (centres undefined) | < 1000 | < 10
CC(=O)Nc1nc2ccc(-c3cnc(N)c(F)c3)cc2s1 | < 1000 | < 10
Nc1ncc(-c2ccc3nc(NC(=O)CCCN4CCOCC4)sc3c2)cn1 | < 1000 | < 10
COc1ccc(C#Cc2c(NC(C)=O)nc3ccc(-c4cnc(N)c(C(F)(F)F)c4)cn23)cc1 | < 1000 | < 10
CC(=O)Nc1cn2cc(-c3cnc(N)cc3F)ccc2n1 | < 1000 | < 25
CC(=O)Nc1cn2cc(-c3cnc(N)c(C=NNc4ccccc4)c3)ccc2n1 | < 1000 | < 1
Nc1ncc(-c2ccc3nc(NC(=O)C4CCN4)cn3c2)nc1OCC(F)(F)F (centres undefined) | < 1000 | < 10
CC(=O)Nc1cn2cc(-c3ccc(N)nc3)ccc2n1 | < 1000 | < 10
CC(=O)Nc1cn2cc(-c3cnc(N)c(OC4CN(C(=O)OC(C)(C)C)C4)n3)ccc2n1 | < 1000 | < 1
COc1cc(-c2ccc3nc(NC(C)=O)cn3n2)c(C)nc1N | < 10000 | < 25
CC(=O)Nc1nc2ccc(-c3cnc(N)c(C(=O)N4CCOCC4)c3)cc2s1 | < 1000 | < 10
Nc1ccc(C(=O)Nc2nc3ccc(-c4cnc(N)c(C(F)(F)F)c4)cc3s2)cn1 | < 1000 | < 1
CC(=O)Nc1cn2cc(-c3cnc(N)c(Oc4cccc(F)c4)n3)ccc2n1 | < 1000 | < 1
CC(=O)Nc1cn2cc(-c3cnc(N)c(C(=O)NCCN4CCCC4)n3)ccc2n1 | < 1000 | < 1
CC(=O)Nc1nc2ccc(-c3cnc(N)c(C(F)(F)F)c3)cn2c1C#Cc1ccc(C)cc1 | < 1000 | < 10
NC(=O)[C@@H]1CCCN1C(=O)Nc1nc2ccc(-c3cnc(N)c(C(F)(F)F)c3)cc2s1 | < 1000 | < 10
CC(=O)Nc1cn2cc(-c3cnc(N)c(N4CCOCC4)n3)ccc2n1 | < 1000 | < 10

Second part, the compound after the results:

IC50 [1] [nM] | EC50 [2] [µM] | SMILES
< 1000 | < 1 | COc1ccc(CC(=O)Nc2cn3cc(-c4cnc(N)c(C(F)(F)F)c4)ccc3n2)cc1
< 1000 | < 10 | CC(=O)Nc1nc2ccc(-c3cnc(N)c(C(F)(F)F)c3)cn2c1C#CCNC(=O)OC(C)(C)C
< 1000 | < 10 | CC(=O)Nc1cn2c(C)c(-c3cnc(N)c(OCC(F)(F)F)n3)ccc2n1
< 1000 | < 1 | CN(C)CCCC(=O)Nc1cn2nc(-c3cnc(N)c(C(F)(F)F)c3)ccc2n1
< 1000 | < 10 | CC(C)(C)OC(=O)N1CCCCC1CCC(=O)Nc1cn2nc(-c3cnc(N)c(C(F)(F)F)c3)ccc2n1 (centres undefined)
< 1000 | < 10 | NC(=O)Nc1cn2cc(-c3cnc(N)c(C(F)(F)F)c3)ccc2n1
< 1000 | < 10 | CCC(=O)Nc1cn2cc(-c3cnc(N)c(C(F)(F)F)c3)ccc2n1
< 1000 | < 1 | CC(=O)Nc1nc2ccc(-c3cnc(N)c(C(F)(F)F)c3)cn2c1C#N
< 1000 | < 10 | COc1cccc(-c2cc(-c3ccc4nc(NC(C)=O)cn4n3)cnc2N)n1
< 1000 | < 10 | CN(CC(=O)Nc1cn2nc(-c3cnc(N)c(C(F)(F)F)c3)ccc2n1)C(=O)OC(C)(C)C
< 1000 | < 10 | C/C=C/c1c(NC(C)=O)nc2ccc(-c3cnc(N)c(C(F)(F)F)c3)cn12
< 1000 | < 25 | CNC(=O)C1CCN(C(=O)Nc2cn3cc(-c4cnc(N)c(C(F)(F)F)c4)ccc3n2)C1 (centres undefined)
< 1000 | < 25 | Nc1ncc(-c2ccc3nc(NC(=O)c4ccccn4)cn3c2)cc1C(F)(F)F
< 1000 | < 1 | CC(=O)Nc1cn2nc(-c3cnc(N)c(-c4ccccc4)c3)ccc2n1
< 1000 | < 1 | Nc1ncc(-c2ccc3nc(NC(=O)Cc4cccc5ccccc45)cn3c2)cc1C(F)(F)F
< 1000 | < 25 | CC(C)(C)OC(=O)N1CCC[C@@H]1C(=O)Nc1cn2nc(-c3cnc(N)c(C(F)(F)F)c3)ccc2n1
< 1000 | < 10 | COc1nc(-c2ccc3nc(NC(C)=O)cn3n2)cnc1N
< 1000 | < 10 | CCN(CC)CC#Cc1c(NC(C)=O)nc2ccc(-c3cnc(N)c(C(F)(F)F)c3)cn12
< 1000 | < 10 | CCN1CCC(OCC(=O)Nc2cn3cc(-c4cnc(N)c(C(F)(F)F)c4)ccc3n2)CC1
< 1000 | < 10 | C[C@H](N)C(=O)Nc1cn2nc(-c3cnc(N)c(C(F)(F)F)c3)ccc2n1
< 1000 | < 10 | CC(=O)Nc1cn2nc(-c3cnc(N)c(CN4CCCC4)c3)ccc2n1
< 1000 | < 1 | Nc1ncc(-c2ccc3nc(NC(=O)CCCN4CCCCC4)cn3n2)cc1C(F)(F)F
< 1000 | < 25 | CCCc1c(NC(C)=O)nc2ccc(-c3cnc(N)c(C(F)(F)F)c3)cn12

IC50 [1] [nM] | EC50 [2] [µM] | SMILES
< 1000 | < 10 | COc1ccc(CC(=O)Nc2cn3cc(-c4cnc(N)c(C(F)(F)F)c4)ccc3n2)cc1OC
< 1000 | < 25 | CC(=O)Nc1cn2nc(-c3cnc(N)cn3)ccc2n1
< 1000 | < 10 | Nc1ncc(-c2ccc3nc(NC(=O)CN4CCCCC4)cn3n2)cc1C(F)(F)F
< 1000 | < 10 | Nc1ncc(-c2ccc3nc(NC(=O)[C@H]4CCCCN4)cn3c2)cc1C(F)(F)F
< 1000 | < 25 | C/C=C\c1c(NC(C)=O)nc2ccc(-c3cnc(N)c(C(F)(F)F)c3)cn12
< 1000 | < 10 | Nc1ncc(-c2ccc3nc(NC(=O)[C@@H]4CCCN4)cn3n2)cc1C(F)(F)F
< 1000 | < 10 | Nc1ncc(-c2ccc3nc(NC(=O)CCCO)cn3c2)cc1C(F)(F)F
< 1000 | < 10 | Nc1ncc(-c2ccc3nc(NC(=O)CN4CCCCC4)cn3c2)cc1C(F)(F)F
< 1000 | < 10 | COC(=O)Nc1cn2cc(-c3cnc(N)c(C(F)(F)F)c3)ccc2n1
< 1000 | < 25 | CC(=O)Nc1cn2nc(-c3cnc(N)c(C(=O)NCCO)c3)ccc2n1
< 1000 | < 10 | Nc1ncc(-c2ccc3nc(NC(=O)COC4CCNCC4)cn3c2)cc1C(F)(F)F
< 1000 | < 10 | Nc1ncc(-c2ccc3nc(NC(=O)c4cccnc4)cn3c2)cc1C(F)(F)F
< 1000 | < 25 | CC(=O)Nc1cn2nc(-c3cnc(N)c(C(=O)NCCNS(C)(=O)=O)c3)ccc2n1
< 1000 | < 1 | CC(=O)Nc1cn2nc(-c3cnc(N)c(-c4ccccc4F)c3)ccc2n1
< 1000 | < 25 | NCCCC(=O)Nc1cn2nc(-c3cnc(N)c(C(F)(F)F)c3)ccc2n1
< 1000 | < 25 | CC(=O)Nc1nc2ccc(-c3cnc(N)c(C(F)(F)F)c3)cn2c1-c1cccc(F)c1
< 1000 | < 10 | CC(=O)Nc1nc2ccc(-c3cnc(N)c(C(F)(F)F)c3)cn2c1C(N)=O
< 1000 | < 25 | N#Cc1ccc(C(=O)Nc2cn3cc(-c4cnc(N)c(C(F)(F)F)c4)ccc3n2)cc1
< 1000 | < 10 | CCN1CCN(CCCC(=O)Nc2cn3cc(-c4cnc(N)c(C(F)(F)F)c4)ccc3n2)CC1
< 1000 | < 25 | CC(=O)N1CCC[C@H]1C(=O)Nc1cn2cc(-c3cnc(N)c(C(F)(F)F)c3)ccc2n1
< 10000 | < 25 | CC(C)(C(=O)Nc1cn2cc(-c3cnc(N)c(C(F)(F)F)c3)ccc2n1)c1ccccc1
< 1000 | < 10 | C[C@@H](NC(=O)OC(C)(C)C)C(=O)Nc1cn2nc(-c3cnc(N)c(C(F)(F)F)c3)ccc2n1
